Test results from patent US20140056898A1, “COMBINATION THERAPIES COMPRISING ANTI-ERBB3 AGENTS” (priority 2011, published 2014).
Entries after “also recorded” stand apart in the source; their conditions may differ.

Tests used:
[1] = test system: BT474-M3 cells; experiment: Spheroid in vitro tumor model assay, estrogen-stimulated; format: cell-based; settings: estrogen-stimulated BT474-M3 spheroids, dose range, six days
From the text: Cells are continued to culture for six days.
Multicellular spheroids are used to simulate the growth and microenvironmental conditions of tumors in vitro.

[2] = test system: BT474-M3 cells; experiment: Spheroid in vitro tumor model assay, heregulin-stimulated; format: cell-based; settings: heregulin-stimulated BT474-M3 spheroids, dose range
Procedure: (§3) BT474-M3 wild type cells (2000 cells/well) are plated in Ultra Low Cluster 96-well plate (Costar). After overnight incubation, indicated treatments are introduced to the plate. Cells are continued to culture for six days. Spheroids are then examined by Nikon microscope and analyzed by MetaMorph Image Analysis Software (Molecular Devices). The spheroid size from cells cultured in medium containing 10% FBS is set as control.
(§4) The percent of spheroid growth inhibition (normalized to untreated, stimulated control) was determined for 1 μM doses of inhibitor treatment.

[3] = test system: BT474-M3 cells; experiment: Spheroid in vitro tumor model assay, dual ligand (estrogen and heregulin)-stimulated; format: cell-based; settings: estrogen and heregulin (dual ligand)-stimulated BT474-M3 spheroids, dose range
Procedure: as §3, §4

[4] = test system: BT474-M3 breast cancer xenograft; experiment: BT474-M3 breast cancer xenograft efficacy study, MM-111 and lapatinib; format: in vivo, mice; settings: from day 40 to day 7; MM-111 weekly, lapatinib daily at optimal efficacious dose
Procedure: Tumor xenografts are established by subcutaneous injection of BT474-M3 cells into the flank of 5-6 weeks old female athymic nude mice (nu/nu; Charles River Labs, Wilmington, Mass.). Mice receive a subcutaneous 60 day, slow-release estrogen implant in the opposite flank (0.72 mg pellet; Innovation Research of America, Sarasota, Fla.) 24 hours prior to the injection of cells.
The percent change in tumor volume from day 40 to day 7 (inoculation) was calculated for each group (FIG. 6b).

[5] = test system: ErbB3 phosphorylation (pErbB3); experiment: Cell signaling assay, pErbB3 ELISA in heregulin-stimulated BT474-M3 cells; format: cell-based
Procedure: (§1) Cell lysates are probed for phospho-ErbB3 (pErbB3), and phospho-AKT (pAKT) by ELISA as described previously (Schoeberl et al, 2009). Inhibitor IC50 values are calculated by fitting dose-response data to a 4-parameter sigmoidal curve (GraphPad Prism®, GraphPad Software, Inc., La Jolla, Calif.).
The amount of pErbB3 was measured by ELISA using the methods described above or minor variations thereof. Model-generated dose-response curves overlay the experimental data (FIG. 7a). […] Untreated and heregulin-stimulated cells were probed for pErbB3 and pAKT and the IC50 was calculated (FIG. 7b).
(§2) CRL-1504™), cells were incubated with serial dilutions of either inhibitor for 15 minutes, 1 hour, 4 hours, and 24 hours followed by stimulation with 5 nM heregulin for 10 min. Amounts of pAKT and pErbB3 were measured by ELISA essentially as described.

[6] = test system: ErbB3 phosphorylation (pErbB3); experiment: Cell signaling assay, pErbB3 ELISA in heregulin-stimulated ZR75-30 cells; format: cell-based; settings: 5 nM heregulin for 10 min, read-out: IC50, reduction of pErbB3 levels
Procedure: as §1, §2

[7] = test system: AKT phosphorylation (pAKT); experiment: Cell signaling assay, pAKT ELISA in heregulin-stimulated BT474-M3 cells; format: cell-based; settings: 5 nM heregulin for 10 min, read-out: IC50, reduction of pAKT levels
Procedure: as §1, §2

[8] = test system: AKT phosphorylation (pAKT); experiment: Cell signaling assay, pAKT ELISA in heregulin-stimulated ZR75-30 cells; format: cell-based; settings: 5 nM heregulin for 10 min, read-out: IC50, reduction of pAKT levels
Procedure: as §1, §2

[9] = test system: BT474-M3 cells; experiment: Apoptosis assay (Annexin V / PI, FACS) in spheroids; format: cell-based; settings: MM-111 100 nM, lapatinib 33 nM; for Percent cell population: Early apoptosis: Annexin V positive, PI negative; for Percent cell population: Dead cells: PI positive, Annexin V negative
Procedure: After overnight incubation, spheroids are treated with inhibitor at concentrations indicated for 72 hours. Spheroids are then trypsinized and combined with floating cells. Cells are washed twice with cold PBS and suspended in binding buffer (0.01 M HEPES, pH 7.4; 0.14 M NaCl; 2.5 mM CaCl2). Cells are then stained with FITC-conjugated Annexin V and PI. Apoptotic cells are quantified on a FACSCalibur™ FACS machine.
Cells were then stained with Annexin V and propidium iodide (PI) and quantitated using FACS (FIG. 11, Table 2). Cell populations staining positive with Annexin V and PI were quantified as late apoptotic, cell populations staining positive with Annexin V but not PI were quantified as early apoptotic, cell populations staining positive for PI but not Annexin V were quantified as dead cells and populations of cells not stained with either Annexin V or PI were considered alive and not apoptotic (Table 2).

[10] = test system: BT474-M3-Aro cells; experiment: Aromatase-overexpressing BT474-M3 cell proliferation assay (WST-1); format: cell-based; settings: androstenedione (200 nM) and heregulin (2 nM), three days; ratio 10:20:1 MM-111 to letrozole to lapatinib
Procedure: BT474-M3 cells were transfected with PS100010 vector containing human aromatase (gene accession No: NM_000103.2). Cells with stable expression of aromatase (BT474-M3-Aro) were obtained after selection with 400 μg/ml geneticin. For cell proliferation assay, BT474-M3-Aro cells (5000 cells/well) were plated in phenol red-free RPMI-1640 medium containing 5% charcoal-stripped FBS into 96-well plate. After overnight incubation, indicated treatments were introduced in the presence of androstenedione (A-4; 200 nM) and heregulin (HRG; 2 nM). […] Cell viability in the presence of 5% charcoal-stripped FBS was set as control (100%).
Androstenedione is a steroid hormone that is converted to estrogen by aromatase.

[11] = test system: ErbB2 and ErbB3; experiment: Affinity of MM-111 antigen-binding sites
[12] = test system: BT474-M3 cells; experiment: Cell proliferation assay (CellTiter-Glo); format: cell-based; settings: 24 hours
Procedure: Cells (8,000/well) are seeded into 96-well plates and incubated overnight. Inhibitor is added at doses indicated and cells are treated for 24 hours. For experiments with ligand stimulation, cells are serum-starved overnight prior to addition of inhibitor and 2 nM heregulin 1-[…] (R&D Systems, Minneapolis, Minn.) is added 1 hour post-inhibitor treatment in media containing 5% FBS. Numbers of viable cells are measured as an indicator of cell proliferation using the CellTiter-Glo® Luminescent Cell Viability Assay (Promega, Madison, Wis.).

Row | IC50 ([5]; BT474-M3 cells, 5 nM heregulin for 10 min, read-out: IC50, reduction of pErbB3 levels) | IC50 [6] | IC50 [7] | IC50 [8] | affinity of ErbB2 antigen-binding site relative to ErbB3 antigen-binding site [11] | Compound | inhibition of spheroid growth (in words) [1] | inhibition of spheroid growth (in words) [2] | inhibition of spheroid growth (in words) [3] | percent change in tumor volume [4] | ability to inhibit heregulin-induced ErbB3 activation relative to lapatinib ([5]; incubation 15 minutes up to 24 hours) | Percent cell population: Live cells ([9]; 72 hours) | Percent cell population: Late apoptosis ([9]; 72 hours, Annexin V and PI positive) | Percent cell population: Early apoptosis ([9]; 72 hours) | Percent cell population: Dead cells ([9]; 72 hours) | total apoptotic cells [9] | inhibition of cell growth (in words) [10] | inhibition of heregulin-activated signaling (pErbB3, pAKT; in words) ([5]; BT474-M3 cells, 5 nM heregulin 10 min versus unstimulated, 1-hour incubation) | inhibition of cell proliferation (viable cells) ([12]; BT474-M3 cells in serum plus 2 nM heregulin) | inhibition of cell proliferation (viable cells) ([12]; unstimulated BT474-M3 cells in serum)
1 | – | – | – | – | – | C[C@]12CC[C@@H]3c4ccc(O)cc4C[C@@H](CCCCCCCCC[S+]([O-])CCCC(F)(F)C(F)(F)F)[C@H]3[C@@H]1CC[C@@H]2O (some centres unmarked) [fulvestrant] | showed inhibitory effects on spheroid growth | did not inhibit heregulin stimulated spheroid growth | inhibited spheroid growth | – | – | – | – | – | – | – | – | – | – | –
2 | 3 nM | 5 nM | 10 nM | 4 nM | about 30 times | MM-111: bispecific anti-ErbB2/anti-ErbB3 antibody, scFv HSA conjugate, amino acid sequence SEQ ID NO:1 | showed inhibitory effects on spheroid growth | inhibited heregulin-induced spheroid growth | inhibited spheroid growth; also recorded: greater inhibitory effects than trastuzumab | 14% | superior to lapatinib by greater than an order of magnitude | 78.9% | 7.5% | 12.9% | 0.74% | about 20% | inhibited cell proliferation to a similar extent | – | – | –
3 | – | – | – | – | – | N#Cc1ccc(C(c2ccc(C#N)cc2)n2cncn2)cc1 [letrozole] | – | – | – | – | – | – | – | – | – | – | did not result in significant inhibition of spheroid cell growth | – | – | –
4 | – | – | – | – | – | CS(=O)(=O)CCNCc1ccc(-c2ccc3ncnc(Nc4ccc(OCc5cccc(F)c5)c(Cl)c4)c3c2)o1 [lapatinib, reference compound] | – | – | – | −11% | – | 67.9% | – | 16.8% | 0.73% | about 31% | did not result in growth inhibition except at high concentrations | not an effective inhibitor of heregulin-activated signaling | about 23% | ~50%
